This note sets out measurements from publication PMC10056899, “Neuroprotective and Antiherpetic Properties of Polyphenolic Compounds from Maackia amurensis Heartwood” (Molecules, 2023).

Each structure is given as a SMILES string. “And” between values parts separate entries of the source, which are not always exact repeats. Equal entries are not always repeated.

Series [1] can be described thus: Cytotoxicity against Vero cells (MTT assay). Type of series: cell-based. The note with it: African green monkey (Chlorocebus sp.). The procedure:
The HSV-1 strain L2 and Vero cell culture (kidney epithelial cells of the African green monkey Chlorocebus sp.) were obtained from the N.F. Gamaleya Federal Research Centre for Epidemiology and Microbiology (Moscow, Russia). HSV-1 was grown in Vero cells, using Dulbecco′s Modified Eagle′s Medium (DMEM, Biolot, St. Petersburg, Russia) supplemented with 10% fetal bovine serum (FBS, Biolot, St. Petersburg, Russia) and 100 U/mL of gentamycin (Dalkhimpharm, Khabarovsk, Russia), at 37 °C in a CO2 incubator. In the maintenance medium, the FBS concentration was decreased to 1%.
The tested compounds were dissolved in DMSO (Sigma, St. Louis, MO, USA) at a concentration 10 mg/mL and stored at −20 °C. For cytotoxicity and anti-HSV-1 activity determination, the stock solutions were diluted with DMEM so that the final concentration of DMSO was 0.5%.
The cytotoxicity evaluation of the studied compounds was performed using the MTT assay, as described previously. In brief, confluent Vero cells in 96-well microplates (1 × 10^4 cells/well) were incubated with tested compounds at various concentrations (1–500 μg/mL) at 37 °C for 48 h (5% CO2). Untreated cells were used as controls. Then, MTT solution (methylthiazolyltetrazolium bromide, Sigma, St. Louis, MO, USA) was added to cells at a concentration of 5 mg/mL and the cells were incubated at 37 °C for 2 h. After dissolution of formazan crystals, optical densities were read at 540 nm (Labsystems Multiskan RC, Vantaa, Finland). […] [42]. Experiments were performed in triplicate and repeated three times.
In general terms: Tetrazolium dyes change colour on reduction, which living cells bring about.

Series [2] can be described thus: Ferric reducing antioxidant power (FRAP) assay. The note with it: 4 min, pH 3.6. Here is the method: The FRAP assay was carried out as described in [41]. We prepared FRAP reagent by mixing 2.5 mL of TPTZ (2,4,6-tris(2-pyridyl)-s-triazine) solution (10 mM) in 40 mM HCl and […] of FeCl3 solution (20 mM) in acetate buffer solution (300 mM, pH 3.6). Then, we added stilbenes 1–6 to 3 mL of FRAP reagent at concentrations from 1 to 34 µM. The mixture was kept in the dark at room temperature for 4 min. Then, we measured the absorbance at 595 nm using a Shimadzu UV 1240 spectrophotometer. Equation (2) was used to calculate the FRAP values of stilbenes 1–6:(2) FRAP=CFe/Cx, where: • CFe is the concentration of Fe^2+ (µM) formed in the reaction; • Cx is the concentration of polyphenolic compounds in the reacting mixture.
The concentration of Fe^2+ (µM) formed in the reaction was determined using the calibration curve obtained for different concentrations of FeSO4·7H2O.

Series [3] deals with PQ-treated Neuro-2a cells. Nature of the series: Mitochondrial membrane potential in PQ-treated cells (TMRM). Conditions: 10 μM. The format is cell-based, murine. Here is the method:
[…] Then, we added PQ (500 μM) and kept the cell suspension in a CO2-incubator for 1 h. Cells incubated without PQ and stilbenes and with PQ only were used as positive and negative control, respectively. We added the tetramethylrhodamine methyl (TMRM) (Sigma-Aldrich, St. Louis, MO, USA) solution (500 nM) to each well and kept the cells for 30 min in a CO2-incubator at 37 °C. The intensity of fluorescence was measured with a PHERAstar […] reader (BMG Labtech, Ortenberg, Germany) at λex = 540 nm and λem = 590 nm. We processed the data by MARS Data Analysis v. 3.01R2 (BMG Labtech, Ortenberg, Germany) and presented the results as percentages of the positive control value.

Series [4] relates to PQ-treated Neuro-2a cells. Nature of the series: Intracellular ROS level in PQ-treated cells (H2DCF-DA). The note with it: 10 μM, PQ 1 mM. Type of series: cell-based, murine. The procedure: After 24 h of adhesion, Neuro-2a cells (1 × 10^4 cells/well) were incubated with stilbenes (0.01–10 µM) for 1 h. After that, we added PQ (1 mM) to each well and incubated the cells for 3 h. To study ROS formation, we added 20 µL of 2,7-dichlorodihydrofluorescein diacetate solution ([…], H2DCF-DA, Molecular Probes, Eugene, OR, USA) to each well, so that the concentration was 10 µM, and kept the microplate in a CO2–incubator for additional 30 min at 37 °C.

On to `Oc1ccc(/C=C/c2cc(O)cc3c2[C@H](c2cc(O)cc(O)c2)[C@@H](c2ccc(O)c(O)c2)O3)cc1` [Compound 4, scirpusin A], for which the CC50 at 48 h in series [1] is 199 µg/mL and 424 µM. Further, in series [2], the “FRAP CFe2+(µM)/Cpolyphenolic compound (µM)” value was 11.44 ± 1.41 CFe2+(µM)/Cpolyphenolic compound (µM) and the “FRAP CFe2+(µM)/Cpolyphenolic compound (μkg/mL)” value is 24.34 ± 3.00 CFe2+(µM)/Cpolyphenolic compound (μkg/mL). Further, the “Increase of mitochondrial membrane potential compared to PQ-treated cells” value in series [3] was determined as 26%. The “Reduction of intracellular ROS level in PQ-treated cells” value in series [4] is listed as 7%.
Take `COc1ccc([C@@H]2COc3cc(O)ccc3[C@H]2c2c(O)cc(O)cc2/C=C/c2ccc(O)c(O)c2)c(O)c1` [Compound 1]: the CC50 at 48 h in series [1] was 162 µg/mL and 316 µM. In series [2], the “FRAP CFe2+(µM)/Cpolyphenolic compound (µM)” value is listed as 12.36 ± 1.38 CFe2+(µM)/Cpolyphenolic compound (µM) and the “FRAP CFe2+(µM)/Cpolyphenolic compound (μkg/mL)” value is 24.04 ± 2.68 CFe2+(µM)/Cpolyphenolic compound (μkg/mL). In addition, the “Reduction of intracellular ROS level in PQ-treated cells” value in series [4] was determined as 17%.

A word on the CC50: it is the concentration giving 50% cytotoxicity.
